Data on two molecules can be found in ChEMBL document CHEMBL1155150 (Antimicrob Agents Chemother, 2007).

Data set [1] relates to Homo sapiens. Description: Free Cmax in human at 1 g, iv. Format: ADME, organism-based. Particulars: in vivo.
Data set [2] in a line: Half life in human plasma at 1 g, iv. Format: ADME, organism-based.
The next data set deals with Yersinia pestis. Briefly: Antibacterial activity against Yersinia pestis delta CO92 by broth macrodilution method. Format: functional.
Data set [3] deals with Homo sapiens. Briefly: Free Cmin in human at 1 g, iv. Type of data set: ADME, organism-based. The settings on record: in vivo.
The nature of data set [4]: Half life in human plasma at 500 mg, po. Format: ADME, organism-based.
Data set [5] deals with Homo sapiens. Description: Free Cmax in human at 500 mg, po. Particulars: in vivo. Type of data set: ADME, organism-based.
The subject of data set [6] is Homo sapiens. Description: Free AUC (0 to 24 hrs) in human plasma at 500 mg, po. Type of data set: ADME, organism-based. Particulars: in vivo.

Values after ≈ are worked out from the molar mass of the structure shown.

As to `[H]/N=C(/N)N[C@H]1[C@H](O)[C@@H](O)[C@H](O[C@@H]2O[C@@H](C)[C@](O)(C=O)[C@H]2O[C@@H]2O[C@@H](CO)[C@H](O)[C@@H](O)[C@@H]2NC)[C@@H](N/C(N)=N\[H])[C@@H]1O` [STREPTOMYCIN], in the data set on Homo sapiens [1], the fCmax stood at 38 mg/L. Also, the half-life in data set [2] is 150 min. In the data set with Yersinia pestis, this molecule showed an MBC of 2 µg/mL (≈ 3.44 µM) and an MIC of 2 µg/mL (≈ 3.44 µM). The molecule further yielded a fCmin with Homo sapiens [3] of 2 mg/L.

Regarding `C[C@H]1COc2c(N3CCN(C)CC3)c(F)cc3c(=O)c(C(=O)O)cn1c23.C[C@H]1COc2c(N3CCN(C)CC3)c(F)cc3c(=O)c(C(=O)O)cn1c23.O` [LEVOFLOXACIN], in data set [4], the half-life was 420 min. The molecule further had a fCmax in the data set on Homo sapiens [5] of 3.6 mg/L. For the same molecule, the fAUC with Homo sapiens [6] was 36 mg·h/L. In the data set with Yersinia pestis, this molecule had an MBC of 0.125 µg/mL and an MIC of 0.06 µg/mL.

What is called half-life is how long it takes for the measured level to halve. Low readings indicate rapid decline, high ones slow decline. Broadly, the MBC is the smallest concentration meeting the test's criterion for killing. Lower therefore signals greater bactericidal potency. As a reminder, the MIC is the lowest concentration found to suppress growth. A lower MIC goes with greater potency.
